From patent US6822146B2, “Sulfonylurea-tolerant sunflower line M7” (priority 2000, dated 2004)

Columns and labels:
[1] = system: BC2-M3M12; test: Test G control of volunteer sunflower, BC2-M3M12; type: in vivo; details: 530 g a.i./ha; rated 4 weeks after application; scale 0-100
[2] = system: H89A × RHA274 (sulfonylurea-susceptible hybrid); test: Test G control of volunteer sunflower, H89A × RHA274; type: in vivo; details: 530 g a.i./ha; rated 4 weeks after application; scale 0-100
[3] = system: mutants originating from M11 and M12; details: Test G rates
Source text: This test involved sulfonylurea-resistant sunflower progeny BC2-M3M11 and BC2-M3M12, derived from M11 and M12, respectively. Also, a sulfonylurea-susceptible hybrid, H89A×RHA274, was included for comparison. Plants were sprayed with formulated herbicides at the 4-leaf stage. The efficacy of the treatments on the sunflowers was visually rated 4 weeks after application, using a scale where 0 means no control of the sunflowers, 85 means sufficient efficacy level to stop plants from flowering and propagating, and 100 means a complete destruction of the mutants.
Weed control in sugar beet requires 2-3 herbicide applications per season to efficiently control weeds in this slow growing crop.

[4] = system: BC2-M3M11; test: Test G control of volunteer sunflower, BC2-M3M11; type: in vivo; details: 530 g a.i./ha; rated 4 weeks after application; scale 0-100
[5] = system: Chenopodium album; test: Test H weed control, field plots; type: in vivo; details: 36 days after treatment; g a.i./ha: tribenuron-methyl 22.5, metsulfuron-methyl 6, ethametsulfuron-methyl 16, imazapyr isopropylamine salt 15, aclonifen 1200
Source text: (§1) Field plots (2 m×5 m) were tilled to remove weed cover and then seeded in rows with the following weeds: Capsella bursa pastoris, Atriplex patula, Chenopodium album, Stellaria media, Mecurialis annua, Polygonum persicaria, Amaranthus retroflexus, Polygonum convolvulus, Polygonum aviculare, Viola arvensis, Matricaria inodora, Anagallis arvensis, Sinapis arvensis, Setaria viridis, Solanum nigrum and Echinochloa crusgalli. After 21 days from sowing, at which time the weeds had reached the 2- to 6-leaf stage, herbicide treatments were applied to the plots according to a complete randomized block design, with each herbicide treatment triply replicated. The herbicides were sprayed using standard flat fan nozzles moved perpendicular to the sown lines using water spray volumes of about 296 L/ha.
(§2) Assessments of weed control were made by visual inspection 36 days after herbicide treatment. A visual rating system was used based on a percentage scale from 0 to 100% compared to an adjacent untreated control plot. On this scale 0 represents no visual differences relative to an untreated control and 100 represents complete control of the given weed species.

[6] = system: Stellaria media; test: Test H weed control, field plots; type: in vivo; details: 36 days after treatment; g a.i./ha: tribenuron-methyl 22.5, metsulfuron-methyl 6, ethametsulfuron-methyl 16, imazapyr isopropylamine salt 15, aclonifen 1200
Source text: as §1, §2

[7] = system: Mercurialis annua; test: Test H weed control, field plots; type: in vivo; design: concentration or dose not given beside the values; details: 36 days after treatment; g a.i./ha: tribenuron-methyl 22.5, metsulfuron-methyl 6, ethametsulfuron-methyl 16, imazapyr isopropylamine salt 15, aclonifen 1200
Source text: as §1, §2

[8] = system: Polygonum persicaria; test: Test H weed control, field plots; type: in vivo; design: concentration or dose not given beside the values; details: 36 days after treatment; g a.i./ha: tribenuron-methyl 22.5, metsulfuron-methyl 6, ethametsulfuron-methyl 16, imazapyr isopropylamine salt 15, aclonifen 1200
Source text: as §1, §2

[9] = system: Atriplex patula; test: Test H weed control, field plots; type: in vivo; design: concentration or dose not given beside the values; details: 36 days after treatment; g a.i./ha: tribenuron-methyl 22.5, metsulfuron-methyl 6, ethametsulfuron-methyl 16, imazapyr isopropylamine salt 15, aclonifen 1200
Source text: as §1, §2

[10] = system: Matricaria inodora; test: Test H weed control, field plots; type: in vivo; design: concentration or dose not given beside the values; details: 36 days after treatment; g a.i./ha: tribenuron-methyl 22.5, metsulfuron-methyl 6, ethametsulfuron-methyl 16, imazapyr isopropylamine salt 15, aclonifen 1200
Source text: as §1, §2

[11] = system: Polygonum convolvulus; test: Test H weed control, field plots; type: in vivo; design: concentration or dose not given beside the values; details: 36 days after treatment; g a.i./ha: tribenuron-methyl 22.5, metsulfuron-methyl 6, ethametsulfuron-methyl 16, imazapyr isopropylamine salt 15, aclonifen 1200
Source text: as §1, §2

[12] = system: Sinapis arvensis; test: Test H weed control, field plots; type: in vivo; design: concentration or dose not given beside the values; details: 36 days after treatment; g a.i./ha: tribenuron-methyl 22.5, metsulfuron-methyl 6, ethametsulfuron-methyl 16, imazapyr isopropylamine salt 15, aclonifen 1200
Source text: as §1, §2

[13] = system: Solanum nigrum; test: Test H weed control, field plots; type: in vivo; design: concentration or dose not given beside the values; details: 36 days after treatment; g a.i./ha: tribenuron-methyl 22.5, metsulfuron-methyl 6, ethametsulfuron-methyl 16, imazapyr isopropylamine salt 15, aclonifen 1200
Source text: as §1, §2

[14] = system: Capsella bursa pastoris; test: Test H weed control, field plots; type: in vivo; design: concentration or dose not given beside the values; details: 36 days after treatment; g a.i./ha: tribenuron-methyl 22.5, metsulfuron-methyl 6, ethametsulfuron-methyl 16, imazapyr isopropylamine salt 15, aclonifen 1200
Source text: as §1, §2

[15] = system: Setaria viridis; test: Test H weed control, field plots; type: in vivo; design: concentration or dose not given beside the values; details: 36 days after treatment; g a.i./ha: tribenuron-methyl 22.5, metsulfuron-methyl 6, ethametsulfuron-methyl 16, imazapyr isopropylamine salt 15, aclonifen 1200
Source text: as §1, §2

[16] = system: Amaranthus retroflexus; test: Test H weed control, field plots; type: in vivo; design: concentration or dose not given beside the values; details: 36 days after treatment; g a.i./ha: tribenuron-methyl 22.5, metsulfuron-methyl 6, ethametsulfuron-methyl 16, imazapyr isopropylamine salt 15, aclonifen 1200
Source text: as §1, §2

[17] = system: Polygonum aviculare; test: Test H weed control, field plots; type: in vivo; design: concentration or dose not given beside the values; details: 36 days after treatment; g a.i./ha: tribenuron-methyl 22.5, metsulfuron-methyl 6, ethametsulfuron-methyl 16, imazapyr isopropylamine salt 15, aclonifen 1200
Source text: as §1, §2

[18] = system: Anagallis arvensis; test: Test H weed control, field plots; type: in vivo; design: concentration or dose not given beside the values; details: 36 days after treatment; g a.i./ha: tribenuron-methyl 22.5, metsulfuron-methyl 6, ethametsulfuron-methyl 16, imazapyr isopropylamine salt 15, aclonifen 1200
Source text: as §1, §2

[19] = system: Viola arvensis; test: Test H weed control, field plots; type: in vivo; design: concentration or dose not given beside the values; details: 36 days after treatment; g a.i./ha: tribenuron-methyl 22.5, metsulfuron-methyl 6, ethametsulfuron-methyl 16, imazapyr isopropylamine salt 15, aclonifen 1200
Source text: as §1, §2

[20] = system: Echinochloa crus-galli; test: Test H weed control, field plots; type: in vivo; design: concentration or dose not given beside the values; details: 36 days after treatment; g a.i./ha: tribenuron-methyl 22.5, metsulfuron-methyl 6, ethametsulfuron-methyl 16, imazapyr isopropylamine salt 15, aclonifen 1200
Source text: as §1, §2

Row | Compound | Efficacy on BC2-M3M12 [1] | Efficacy on H89A × RHA274 [2] | efficacy against the mutants [3] | Efficacy on BC2-M3M11 [4] | weed control, visual rating: Chenopodium album [5] [%] | weed control, visual rating: Stellaria media [6] [%] | weed control, visual rating: Mercurialis annua [7] [%] | weed control, visual rating: Polygonum persicaria [8] [%] | weed control, visual rating: Atriplex patula [9] [%] | weed control, visual rating: Matricaria inodora [10] [%] | weed control, visual rating: Polygonum convolvulus [11] [%] | weed control, visual rating: Sinapis arvensis [12] [%] | weed control, visual rating: Solanum nigrum [13] [%] | weed control, visual rating: Capsella bursa pastoris [14] [%] | weed control, visual rating: Setaria viridis [15] [%] | weed control, visual rating: Amaranthus retroflexus [16] [%] | weed control, visual rating: Polygonum aviculare [17] [%] | weed control, visual rating: Anagallis arvensis [18] [%] | weed control, visual rating: Viola arvensis [19] [%] | weed control, visual rating: Echinochloa crus-galli [20] [%]
1 | O=C(O)COc1ccc(Cl)cc1Cl [2,4-D, 2,4-dichlorophenoxyacetic acid] | 100 | 100 | completely-destroyed | 100 | – | – | – | – | – | – | – | – | – | – | – | – | – | – | – | –
2 | Nc1c([N+](=O)[O-])ccc(Oc2ccccc2)c1Cl [Aclonifen, aclonifen] | – | – | – | – | 100 | 100 | 50 | 70 | 0 | 0 | 23 | 100 | 20 | 100 | 40 | 40 | 30 | 100 | 57 | 0
